Patent US20090068161A1, “USE OF A COMBINATION OF HESPERIDIN AND OF A MICROORGANISM FOR INFLUENCING THE BARRIER FUNCTION OF THE SKIN” (L'OREAL, priority 2007, published 2009)

System: Episkin® model (reconstituted skin)
Test: Barrier function of reconstituted skin (Episkin® model): penetration of a nonpenetrating reference compound (cationic anthraquinone)
Type: cell-based
Conditions: condition E: Episkin® treated from D6 to D13 with 10 μM Hes7Glu; dye 1 mM applied for 4 hours
From the text: The conversion of a nutritional agent (hereinafter known as probiotic conditioned medium) after ingestion is first of all stimulated, for the purpose of resulting use directly on a skin model (stage A).
The medium of the cocultures stimulated with Lactobacillus paracasei, resulting from the basolateral compartment, is subsequently withdrawn and its effects, in combination with the most important metabolite of hesperidin, hesperitin-7 glucuronide (Hes7Glu), on the barrier function in the Episkin® model are subsequently tested in vitro (stage B).
A—Preparation of the Probiotic Conditioned Medium
An intestinal barrier model (comprising human enterocyte lines (Caco-2) co-cultured with human leukocytes in a “transwell” cell co-culture system [Haller D, 2000]) has been developed. […]
The receiving liquid (RL) is collected and then assayed directly at the end of application by HPLC. Each point is analysed in duplicate. […]
The concentration is determined using a calibration range produced on the same day. The degrees of penetration are calculated from the ratio of the amount in the RL to the amount applied, the following results having in addition formed the subject of a statistical study using the Wilcoxon tests.

For COc1ccc([C@@H]2CC(=O)c3c(O)cc(O[C@@H]4O[C@H](C(=O)O)[C@@H](O)[C@H](O)[C@H]4O)cc3O2)cc1O [Hes7Glu, hesperitin-7 glucuronide], the “effect on the barrier function (degree of penetration of the cationic anthraquinone)” value was “no significant effect”.
